Source: paper PMC11601558, “SLC6A19 inhibition facilitates urinary neutral amino acid excretion and lowers plasma phenylalanine” (JCI Insight, 2024)
Several values for one entry are separate records, joined by “and”; a condition that tells them apart may be missing. Identical values can stand only once. Like-named read-outs stand apart in the source and are kept apart here.

Assay: JN-170 plasma pharmacokinetics in Pah^enu2 mice, single oral dose
Format: in vivo, mouse
Design: JN-170 plasma level (Fig 3a) / JN-170 plasma concentration: unit not given here
Conditions: for JN-170 plasma level (Fig 3a) / concentration at 8 h / concentration at 1 h / concentration at 3 h: individual Pah^enu2 mice; for JN-170 plasma concentration: Fig S3a, Pahenu2 mice, individual animals; for concentration at 8 h / concentration at 1 h / concentration at 3 h: male, BTBR-Pah<enu2>/J (Pah^enu2), mouse, plasma, oral, read-out: JN-170 plasma level (Fig 3a)
Method: Male homozygous BTBR-Pah<enu2>/J (Pah^enu2) aged 10–13 weeks were purchased from Jackson Laboratory (no. 002232). Immediately before dosing, each animal’s bladder was manually emptied and a plasma sample was drawn. Animals were dosed by oral gavage with vehicle (10% DMSO, 20% 2-hydroxypropyl-β-cyclodextrin [Sigma-Aldrich]) followed by a 1-week washout prior to dosing with JN-170 at doses ranging from 50 to 250 mg/kg. Following dosing with vehicle or JN-170, animals were individually placed in metabolic cages to collect urine samples. After collection of each urine sample, cages were rinsed with ultra-pure water to recover residual analytes. Blood samples were collected predose as well as 1, 3, 8, 12, and 24 hours after dosing with vehicle or JN-170 into tubes with EDTA as a […], and plasma was separated by centrifuging samples at 2,200g for 5 minutes at 4°C. Throughout the study, mice had access to food and water ad libitum. Plasma and urine samples were stored at –80°C until processing.Ten-week-old male WT C57Bl/6J animals (Si Bei Fu Laboratory Animal Technology Co. Ltd.) were dosed either with vehicle or 50–250 mg/kg JN-170 by oral gavage and blood and urine samples were collected as described. All animals had unrestricted access to food and water during the study; C57Bl/6J were kept on rodent maintenance diet from Beijing Keao Xieli, Pah^enu2 mice were kept on Teklad diet no. T.2018.
Plasma sample analyses were carried out by liquid chromatography tandem mass spectrometry (LC-MS/MS). Plasma samples were mixed 1:1 with carbamazepine or ^13C6-Phe as internal standards for JN-170 and Phe, respectively. Plasma proteins were precipitated by adding 4 volumes of acetonitrile (ACN) and 0.1% formic acid (FA) followed by centrifugation for 5 minutes at 2,100g. Supernatants were diluted 1:1 in ACN and 0.1% FA. For JN-170, a Waters HSS T3 reversed phase column was used for separation using a binary gradient of 0.1% FA in water (mobile phase A) to 0.1% in ACN (mobile phase B). At a flow rate of 0.8 mL/min, the mobile phase gradient increased from an initial 25% phase B to 95% phase B over 30 seconds. After, 1.5 minutes, the gradient was returned to 25% mobile phase B. For detection of Phe, an Acquity UPLC ethylene bridged hybrid (BEH) amide column was used, with a binary gradient of 10 mM ammonium acetate in 95:5:1 H2O:ACN:FA (mobile phase A) to 10 mM ammonium acetate in 95:5:1 ACN:H2O:FA (mobile phase B). At a flow rate of 0.5 mL/min, the mobile phase gradient changed from an initial 100% phase B to 50% phase B over 2.1 minutes. It was returned to 100% phase B after 4 minutes. Analytes were detected using a Sciex API-5500 in multiple reaction monitoring mode using an electrospray ionization source in the positive ion mode with the following ion transitions: m/z 435.2/84.1 (JN-170), 237.1/194.1 (carbamazepine), 166.1/120.1 (Phe), 172.2/126.2 for (^13C6-Phe). Analyte concentrations were calculated with a 1/×^2 linear regression over a concentration range of 1 or 2 to 5,000 ng/mL for JN-170 and 0.05–100 ng/mL for Phe.

coverage above the in vitro IC75 (50 mg/kg): approximately 3 hours | JN-170 plasma level (Fig 3a) (50 mg/kg oral, 24 h): 8.45 and 26.4 and 9.59 and 19.9 | JN-170 plasma level (Fig 3a) (250 mg/kg oral, 1 h): 16600 (2×) and 17000 and 16300 and 17600 | JN-170 plasma level (Fig 3a) (250 mg/kg oral, 24 h): 125 and 63 and 72.6 | concentration at 8 h (50 mg/kg, 50 mg/kg oral): 456 ng/mL | concentration at 1 h (100 mg/kg, 100 mg/kg oral, 1 h): 5780 ng/mL | concentration at 3 h (100 mg/kg, 100 mg/kg oral): 4240 ng/mL | concentration at 8 h (100 mg/kg, 100 mg/kg oral): 2280 ng/mL | concentration at 1 h (200 mg/kg, 200 mg/kg oral, 1 h): 8750 ng/mL | concentration at 3 h (200 mg/kg, 200 mg/kg oral): 8710 ng/mL | concentration at 8 h (200 mg/kg, 200 mg/kg oral): 8610 ng/mL | concentration at 1 h (250 mg/kg, 250 mg/kg oral, 1 h): 18300 ng/mL | concentration at 3 h (250 mg/kg, 250 mg/kg oral): 14800 ng/mL | concentration at 8 h (250 mg/kg, 250 mg/kg oral): 11200 ng/mL
Structure (SMILES): N#Cc1ccc(-c2noc([C@]3(C(F)(F)F)CCN(C(=O)NCCC4(N)CC4)C3)n2)cc1 [JN-170]
JN-170 plasma concentration (time 1 h): 10400 and 12200 and 13800 and 8750 and 11500 and 12500 | JN-170 plasma concentration (time 3 h): 8500 and 9610 and 10900 and 8710 and 9900 and 11900 | JN-170 plasma concentration (time 8 h): 11000 and 6710 and 8280 and 8610 and 8480 and 9150 | JN-170 plasma concentration (time 12 h): 7430 and 5630 and 5750 and 12700 and 9060 and 6600 | JN-170 plasma concentration (time 24 h): 33.1 and 16 and 26.9 and 82.7 and 103 and 19.9
